We go through 9 molecules from ChEMBL document CHEMBL1201862, “PubChem BioAssay data set” (2004).

Among the test systems are HCT-116; HCT-15; HOP-62; MCF7; MDA-N; NCI-H460; NCI/ADR-RES; OVCAR-3; PC-3; RPMI-8226; SF-295; SK-MEL-28; SK-MEL-2; UACC-257; UO-31; Hs-578T; LOX IMVI; NCI-H522; TK-10; MDA-MB-231.
Experiment in all cases: NCI anticancer screen, dose series, 48 h

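In this assay, cells in 96-well plates receive the compound at five concentrations for 48 hours. Endpoints are linearly interpolated between the surrounding concentrations. GI50 = concentration required for 50% inhibition of growth.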 Calls of active or inactive are those of the source. Cut-off read from the data, not from the text of the source: active = GI50 up to about 1.1 µM and inactive = higher.

Regarding `COc1cc(C2c3c(ccc4ccccc34)C(=O)C3CCC(=O)N32)cc(OC)c1O` (stereo not given), the GI50 in the test on HCT-116 is > 25 µM (inactive); in the test on HCT-15, over 25 µM; in the test on HOP-62 it was > 25 µM (inactive); in the test on MCF7, > 25 µM (inactive); in the test on MDA-N it was > 25 µM (inactive); in the test on NCI-H460, > 25 µM (inactive). Besides, the GI50 with NCI/ADR-RES, in the test with OVCAR-3, in the test on PC-3, with RPMI-8226, with SF-295 and with SK-MEL-28 was > 25 µM (inactive) throughout. Further, the GI50 in the test on SK-MEL-2, in the test on UACC-257 and in the test with UO-31 was > 25 µM (inactive) throughout.
On to `S=C(NN=C1NCCCN1)Nc1ccccc1`, for which the GI50 was > 100 µM (inactive) in the test with HCT-116; over 100 µM in the test with HCT-15; > 100 µM (inactive) with HOP-62; > 100 µM (inactive) in the test on Hs-578T; > 100 µM (inactive) with LOX IMVI; > 100 µM (inactive) with MCF7. Also, the GI50 in the test on NCI-H460 is > 100 µM (inactive); in the test on NCI-H522, 60.4 µM (inactive); in the test on NCI/ADR-RES, > 100 µM (inactive); in the test with OVCAR-3, > 100 µM (inactive); in the test on PC-3, > 100 µM (inactive); in the test on RPMI-8226, 28.2 µM (inactive). For the same molecule, the GI50 in the test on SF-295, in the test on SK-MEL-28, in the test on SK-MEL-2, in the test with TK-10, in the test with UACC-257 and with UO-31 was > 100 µM (inactive) each time.
For the molecule `COc1ccc2c(c1)CC[C@@H]1[C@@H]2CC[C@]2(C)C(=O)/C(=C/c3ccc(OC)c(OC)c3)C[C@@H]12`, the GI50 was 65.9 µM (inactive) in the test with HCT-116; over 100 µM with HCT-15; > 100 µM (inactive) in the test on HOP-62; > 100 µM (inactive) in the test on MCF7; > 100 µM (inactive) in the test with MDA-MB-231; > 100 µM (inactive) in the test on NCI-H460. In addition, the GI50 is > 100 µM (inactive) in the test on NCI/ADR-RES; > 100 µM (inactive) in the test with OVCAR-3; > 100 µM (inactive) in the test with PC-3; 56.2 µM (inactive) in the test with RPMI-8226; > 100 µM (inactive) in the test with SF-295; > 100 µM (inactive) in the test with SK-MEL-2. The GI50 with TK-10 and in the test on UO-31 was > 100 µM (inactive) throughout.
Regarding `CCCC1(N2C(=O)c3ccc4c5c(ccc(c35)C2=O)N(C2(CCC)CCCCC2)C4=O)CCCCC1`, the GI50 in the test on HCT-116 is > 100 µM (inactive); in the test on HCT-15, over 100 µM; in the test on HOP-62, > 100 µM (inactive); with MCF7, > 100 µM (inactive); in the test on MDA-MB-231, > 100 µM (inactive); in the test on MDA-N it was > 100 µM (inactive). Besides, the GI50 in the test with NCI-H460, in the test on NCI-H522, in the test on NCI/ADR-RES, in the test on OVCAR-3, in the test with PC-3 and in the test on RPMI-8226 was > 100 µM (inactive) throughout. In addition, the GI50 in the test with SF-295, with SK-MEL-28, in the test with SK-MEL-2, with TK-10 and in the test on UO-31 was > 100 µM (inactive) in each case.
`COc1cc([C@@H]2c3cc4c(cc3[C@@H](NC(=O)c3ccc(OC(C)=O)cc3)C3COC(=O)[C@@H]32)OCO4)cc(OC)c1O` (stereo not given in full): the GI50 is 2.61 µM (inactive) with HCT-116; 9.95 µM in the test on HCT-15; 0.714 µM (active) in the test with HOP-62; 1.39 µM (inactive) with LOX IMVI; 0.03 µM (active) in the test with NCI-H460; 1.73 µM (inactive) in the test on NCI-H522. Besides, the GI50 was 4.84 µM (inactive) in the test with OVCAR-3; 1.32 µM (inactive) in the test on RPMI-8226; 2.24 µM (inactive) in the test with SF-295; 3.48 µM (inactive) with SK-MEL-28; 5.57 µM (inactive) in the test on SK-MEL-2; 10.7 µM (inactive) in the test on TK-10. The figures for the GI50 in the test with UACC-257 and in the test with UO-31 were 8.32 µM (inactive) and 14.3 µM (inactive), respectively.
With `CN(C)CC1CCCC/C1=N\OC(=O)c1ccccc1` (stereo not given), the GI50 was > 100 µM (inactive) in the test on HCT-116; over 100 µM with HCT-15; > 100 µM (inactive) with HOP-62; > 100 µM (inactive) in the test with LOX IMVI; > 100 µM (inactive) in the test with NCI-H460; > 100 µM (inactive) in the test on NCI-H522. Besides, the GI50 in the test on OVCAR-3, in the test with RPMI-8226, in the test with SF-295, in the test with SK-MEL-28, with SK-MEL-2 and in the test with TK-10 was > 100 µM (inactive) throughout. Moreover, the GI50 with UACC-257 and in the test on UO-31 was > 100 µM (inactive) each time.
In the case of `O=C(O)C(C1NCCS1)N1Cc2ccccc2C1` (stereo not given), the GI50 in the test on HCT-116 was > 100 µM (inactive); in the test with HCT-15, over 100 µM; in the test on HOP-62, > 100 µM (inactive); in the test with LOX IMVI it was > 100 µM (inactive); with MCF7, > 100 µM (inactive); with MDA-MB-231, > 100 µM (inactive). The GI50 in the test on MDA-N, with NCI-H460, in the test with NCI/ADR-RES, in the test on OVCAR-3, in the test on PC-3 and in the test with RPMI-8226 was > 100 µM (inactive) throughout. Further, the GI50 in the test with SF-295, with SK-MEL-28, in the test on SK-MEL-2, with TK-10, in the test on UACC-257 and in the test on UO-31 was > 100 µM (inactive) throughout.
In the case of `COc1nc2c(c(=O)[nH]1)N=C(c1ccccc1)CC(c1ccccc1)N2` (stereo not given), the GI50 with HCT-116 was 33.8 µM (inactive); in the test with HOP-62, 95.1 µM (inactive); with LOX IMVI, 44.8 µM (inactive); with MCF7, 42.2 µM (inactive); in the test on MDA-MB-231, 33 µM (inactive); in the test on NCI-H460, 35.6 µM (inactive). The GI50 with NCI-H522 is 35.1 µM (inactive); in the test with NCI/ADR-RES, 27.3 µM (inactive); with OVCAR-3, > 100 µM (inactive); with PC-3, 57.9 µM (inactive); in the test on RPMI-8226 it was 27.2 µM (inactive); with SF-295, 49.1 µM (inactive). The GI50 with SK-MEL-28 was 72.9 µM (inactive); in the test on SK-MEL-2, 29.6 µM (inactive); with UACC-257 it was > 100 µM (inactive); in the test on UO-31 it was 39.6 µM (inactive).
With `C=C1CC/C=C(\C)C(=O)C[C@@H]2[C@@H]1CC2(C)C` [BUDDLEDIN C], the GI50 with HCT-116 is 1.17 µM (inactive); in the test on HCT-15 it was 0.689 µM; with HOP-62, 15.3 µM (inactive); in the test on LOX IMVI it was 1.17 µM (inactive); in the test with MCF7, 0.561 µM (active); in the test on MDA-MB-231, 7.53 µM (inactive). The GI50 in the test with MDA-N was 1.2 µM (inactive); with NCI-H460 it was 2.62 µM (inactive); with NCI-H522, 0.439 µM (active); in the test with NCI/ADR-RES, 4.53 µM (inactive); in the test on OVCAR-3 it was 6.34 µM (inactive); in the test with PC-3, 9.14 µM (inactive). In addition, the GI50 in the test with RPMI-8226 was 2.02 µM (inactive); with SF-295 it was 15.5 µM (inactive); in the test with SK-MEL-28, 2.75 µM (inactive); in the test on SK-MEL-2, 17.5 µM (inactive); in the test with TK-10 it was 3.13 µM (inactive); in the test with UACC-257, 4.66 µM (inactive). Moreover, in the test with UO-31, the GI50 was 2.62 µM (inactive).
